Values joined by “and” are separate entries in the source; they are usually repeats but may differ in a detail not shown here. Equal entries are not always repeated. Where two headings read alike, the source gives them in different places.
Legend:
[1] = system: causal agent of soybean rust (Phakopsora pachyrhizi); experiment: Example C: in vivo preventive test on Phakopsora test (soybeans); settings: compound alone
Colletotrichum coccodes = experiment: Example B: in vivo preventive test on Colletotrichum test (tomatoes); settings: compound alone
Description: (§1) The test is evaluated 3 days after the inoculation.

Alternaria solani = experiment: Example A: in vivo preventive test on Alternaria test (tomatoes); settings: compound alone, evaluated 3 days after inoculation
Description: as §1

[2] = system: causal agent of apple scab (Venturia inaequalis); experiment: Example E: in vivo preventive test on Venturia test (apples); settings: compound alone
Alternaria alternata = experiment: Example F: in vitro-Test with Alternaria alternata; format: cell-based; settings: compound alone, growth inhibition, photometric, 3-5 days after application
[3] = Example G: in vivo ecotoxicity screening test on fish (Danio rerio); settings: Danio rerio, in vivo, other: exposure of embryos in water containing the compound
Description: (§2) with ECxi the Effect Concentration (EC) of each chemical i (in ppm) causing x % effect on the ecotoxicity test endpoint.
(§3) For each compound combination, the predicted ECx value is calculated. It is then compared to an experimentally measured value. The ratio of predicted versus measured effect for the combination (thereafter called the Model Deviation Ratio or MDR) is then calculated.
(§4) The environmental effect of the compound combinations was measured experimentally in laboratory ecotoxicity screening studies with fish (Danio rerio). […] Mortality was recorded after 48 h and 96 h for each tested concentration and a reference control. […] Then, the MDR values were calculated.
(§5) This concentrate is then diluted with water to the desired a.i. concentration, leading to a maximal solvent concentration of 0.5%. by weight The compounds alone and the combinations were tested for five increasing concentrations comprised between 0.01 and 1000 ppm (mg/1) a.i., (e.g. 0.1, 1.0, 10 and 100 ppm a.i). For the combinations, compounds A and B were mixed in a weight ratio of 5:1 to 1:5 and five increasing concentrations were tested for each ratio.

Sphaerotheca fuliginea = experiment: Example D: in vivo preventive test on Sphaerotheca test (cucumbers); settings: compound alone
Pyricularia oryzae = format: cell-based; settings: compound alone
Septoria tritici = experiment: Example F: in vitro-Test with Septoria tritici; format: cell-based; settings: compound alone
[4] = system: fish (Danio rerio) embryos; experiment: Example G: in vivo ecotoxicity screening test on fish (Danio rerio); settings: active compound alone, fish (D. rerio) embryos; for Ecotoxicity LC50-48 h found: mortality after 48 h; for Ecotoxicity LC50-96 h found: mortality after 96 h
Description: as §2, §3, §4, §5

Pyrenophora oryzae = experiment: Example F: in vitro-Test with Pyrenophora oryzae; format: cell-based; settings: compound alone

mancozeb [5.013 mancozeb]
Efficacy in % found ([1]; 12.5 ppm a.i.): 0% | Efficacy in % found ([1]; 25 ppm a.i.): 15% | Efficacy in % found ([1]; 50 ppm a.i.): 80% | Efficacy in % found (Colletotrichum coccodes; 12.5 ppm a.i.): 0% | Efficacy in % found (Colletotrichum coccodes; 25 ppm a.i.): 0% | Efficacy in % found (Colletotrichum coccodes; 50 ppm a.i.): 8% | Efficacy in % found (Alternaria solani; 12.5 ppm a.i.): 8% | Efficacy in % found (Alternaria solani; 25 ppm a.i.): 10% | Efficacy in % found (Alternaria solani; 50 ppm a.i.): 85% | Efficacy in % found ([2]; 5 ppm a.i.): 15% | Efficacy in % found ([2]; 10 ppm a.i.): 49% | Efficacy in % found ([2]; 20 ppm a.i.): 95% | Efficacy % (Alternaria alternata; 0.8 ppm): 51% | Efficacy % (Alternaria alternata; 4 ppm): 78%

CCCN(CC)CC1COC2(CCC(C(C)(C)C)CC2)O1 (stereo not drawn) [1.020 spiroxamine, spiroxamine, reference compound]
LC50 at 48 h [3]: 16.5 µg/mL | LC50 at 96 h [3]: 14.8 µg/mL | Efficacy in % found (Sphaerotheca fuliginea; 25 ppm a.i.): 0% | Efficacy in % found (Sphaerotheca fuliginea; 50 ppm a.i.): 30% | Efficacy in % found (Sphaerotheca fuliginea; 100 ppm a.i.): 40% | Efficacy % (Alternaria alternata; 4 ppm): 13% | Efficacy % (Alternaria alternata; 20 ppm): 5% | Efficacy % (Alternaria alternata; 100 ppm): 66%

COCC(=O)N(c1c(C)cccc1C)[C@H](C)C(=O)OC [12.004 mefenoxam]
Efficacy in % found ([1]; 50 ppm a.i.): 0% | Efficacy in % found ([1]; 100 ppm a.i.): 8% | Efficacy in % found ([1]; 200 ppm a.i.): 0% | Efficacy in % found (Colletotrichum coccodes; 50 ppm a.i.): 0% | Efficacy in % found (Colletotrichum coccodes; 100 ppm a.i.): 8% | Efficacy in % found (Colletotrichum coccodes; 200 ppm a.i.): 15% | Efficacy % (Pyricularia oryzae; 20 ppm): 0% | Efficacy % (Pyricularia oryzae; 100 ppm): 0% | Efficacy % (Septoria tritici; 20 ppm): 28% | Efficacy % (Septoria tritici; 100 ppm): 42%

Cc1nn(C)c(F)c1C(=O)Nc1ccccc1C(C)CC(C)C (stereo not drawn) [Example 2.017, penflufen]
Ecotoxicity LC50-48 h found [4]: 1.74 ppm a.i. | Ecotoxicity LC50-96 h found [4]: 0.62 ppm a.i.

metalaxyl-M (mefenoxam) [Example 12.004]
Ecotoxicity LC50-48 h found [4]: >200 ppm a.i. | Ecotoxicity LC50-96 h found [4]: >200 ppm a.i.

metalaxyl [12.003 metalaxyl]
Ecotoxicity LC50-48 h found [4]: >200 ppm a.i. | Ecotoxicity LC50-96 h found [4]: >200 ppm a.i. | Efficacy in % found ([1]; 50 ppm a.i.): 0% | Efficacy in % found ([1]; 100 ppm a.i.): 0% | Efficacy in % found ([1]; 200 ppm a.i.): 20% | Efficacy in % found (Colletotrichum coccodes; 50 ppm a.i.): 0% | Efficacy in % found (Colletotrichum coccodes; 100 ppm a.i.): 0% | Efficacy in % found (Colletotrichum coccodes; 200 ppm a.i.): 8% | Efficacy % (Pyricularia oryzae; 20 ppm): 0% | Efficacy % (Pyricularia oryzae; 100 ppm): 5% | Efficacy in % found (Alternaria solani; 50 ppm a.i.): 8% | Efficacy in % found (Alternaria solani; 100 ppm a.i.): 8% | Efficacy in % found (Alternaria solani; 200 ppm a.i.): 30% | Efficacy % (Septoria tritici; 20 ppm): 43% | Efficacy % (Septoria tritici; 100 ppm): 31%

N#Cc1cncn1CC(O)(Cc1ccccc1F)C1(Cl)CC1 (stereo not drawn) [Example I-34, 1-[2-(1-chlorocyclopropyl)-3-(2-fluorophenyl)-2-hydroxypropyl]-1H-imidazole-5-carbonitrile]
LC50 at 48 h [3]: 35.6 µg/mL | LC50 at 96 h [3]: 27.4 µg/mL | Efficacy in % found (Sphaerotheca fuliginea; 1 ppm a.i.): 0% | Efficacy in % found (Sphaerotheca fuliginea; 5 ppm a.i.): 0% | Efficacy % (Pyrenophora oryzae; 0.008 ppm): 0% | Efficacy % (Pyrenophora oryzae; 0.2 ppm): 0% | Efficacy in % found ([1]; 1 ppm a.i.): 8% and 0% | Efficacy in % found ([1]; 5 ppm a.i.): 93% and 88% | Efficacy in % found (Colletotrichum coccodes; 1 ppm a.i.): 8% | Efficacy in % found (Colletotrichum coccodes; 5 ppm a.i.): 60% | Efficacy in % found (Alternaria solani; 1 ppm a.i.): 15% | Efficacy in % found (Alternaria solani; 5 ppm a.i.): 45% | Efficacy in % found ([2]; 1 ppm a.i.): 8% | Efficacy in % found ([2]; 5 ppm a.i.): 66% and 68% | Efficacy % (Septoria tritici; 0.008 ppm): 0% | Efficacy % (Septoria tritici; 0.04 ppm): 28% | Efficacy % (Septoria tritici; 0.2 ppm): 59% | Efficacy % (Septoria tritici; 1 ppm): 68%

N#Cc1cncn1CC(O)(Cc1cccc(Cl)c1F)C1(Cl)CC1 (stereo not drawn) [Example I-145, 1-[3-(3-chloro-2-fluorophenyl)-2-(1-chlorocyclopropyl)-2-hydroxypropyl]-1H-imidazole-5-carbonitrile]
LC50 at 48 h [3]: 28.2 µg/mL | LC50 at 96 h [3]: 13.4 µg/mL | Efficacy in % found (Sphaerotheca fuliginea; 1 ppm a.i.): 0% | Efficacy in % found (Sphaerotheca fuliginea; 5 ppm a.i.): 0% | Efficacy % (Pyrenophora oryzae; 0.008 ppm): 0% | Efficacy % (Pyrenophora oryzae; 0.04 ppm): 0% | Efficacy in % found ([1]; 1 ppm a.i.): 0% | Efficacy in % found ([1]; 5 ppm a.i.): 45% | Efficacy in % found (Colletotrichum coccodes; 1 ppm a.i.): 23% | Efficacy in % found (Colletotrichum coccodes; 5 ppm a.i.): 75% | Efficacy % (Pyricularia oryzae; 0.2 ppm): 84% | Efficacy % (Pyricularia oryzae; 1 ppm): 87% | Efficacy in % found (Alternaria solani; 1 ppm a.i.): 8% | Efficacy in % found (Alternaria solani; 5 ppm a.i.): 40% | Efficacy in % found ([2]; 1 ppm a.i.): 0% | Efficacy in % found ([2]; 5 ppm a.i.): 66% | Efficacy % (Alternaria alternata; 0.008 ppm): 0% | Efficacy % (Alternaria alternata; 0.04 ppm): 0% and 2% | Efficacy % (Alternaria alternata; 0.2 ppm): 32% | Efficacy % (Alternaria alternata; 1 ppm): 1% | Efficacy % (Septoria tritici; 0.008 ppm): 29% | Efficacy % (Septoria tritici; 0.04 ppm): 25% | Efficacy % (Septoria tritici; 0.2 ppm): 51% | Efficacy % (Septoria tritici; 1 ppm): 63%

— patent US20190223437A1, “ACTIVE COMPOUND COMBINATIONS COMPRISING A 5-SUBSTITUTED IMIDAZOLE DERIVATIVE” (BAYER CROPSCIENCE AKTIENGESELLSCHAFT, priority 2016, published 2019)
